Data from patent publication US20120022048A1, “Anti-proliferative substituted pyrazolo[3,4-d]pyrimidines derivatives (SPP) to inhibit immune activation, virus replication and tumor growth” (priority 2010, published 2012).

Key:
Format in all cases: cell-based
HIV-1 NL 4.3 [1] = assay: HIV-1 replication in activated T cells (PBMC, p24 Ag ELISA); conditions: for HIV activated cells (% p24 compared to not treated control): activated T cells, 7 days, SPPs and Imatinib 10 μM, HU 100 μM, ddI 2 μM; for Antiviral activity in activated cells: class symbol, Table 6; for anti-HIV activity in activated T cells (in words): SPPs 10 μM, compared with HU 100 μM, HU+ddI or untreated control
Procedure: The experimental setup described below allows us to detect direct antiviral activity of a compound.
Human PBMC, obtained from healthy, normal donors, were stimulated for two days with PHA 5 μg/ml. Then cells were infected with HIV-1 NL 4.3, IL-2 was added (20 U/ml), cells were plated (10^5 cells per well in 200 μl) and drug treatment started. […] The control was left untreated. After 7 days of incubation at 37° C. supernatants were harvested and HIV-1 p24 Ag was measured by ELISA.

[2] = tested on: primary human CD4 T-lymphocytes; assay: Apoptosis in primary CD4 T cells (Annexin V and 7-AAD staining); conditions: SPPs 10 μM; for apoptotic effect (in words): compared with HU 100 μM, HU+ddI or untreated control; for apoptosis %: total apoptotic events compared to untreated control, day 10, Imatinib 10 μM, HU 100 μM, ddI 2 μM
Procedure: (§1) Unstimulated (quiescent/resting, day 0 to 5) primary human CD4 T-lymphocytes were obtained by magnetic bead separation from healthy, normal donors. After five days in culture, cells were activated with PHA (5 μg/ml) to induce hyperproliferation then, at day 7, IL-2 (20 U/ml) was added (stimulated, day 6 to 10). All available compounds were tested at a concentration of 10 μM. […] At day 10, cells were harvested. Proliferation of T cells, cultured as described above, was studied by staining the cells with carboxyfluorescein diacetate-succinimidyl ester (CFSE) at day 0 (immediately after infection). For data analysis, the mitotic index (M) was used, calculating the sum of mitotic events at each proliferation cycle. To extract a relative number, M was normalized to the total number of cells acquired using the equation M=Σ[(Xn(T)−Xn(T)/2^n)], that gives the number of mitotic events from the experimentally obtained values of the proportion of T cells under each division peak n (Xn) and the total T cells (T). To study the effect of the compounds on apoptosis T cells were cultured as described above and at day 10 cells were stained with Annexin V and 7-AAD, in order to determine the percentage of total apoptotic events.
We determined the capacity of the compounds to affect the percentages of apoptotic events after 10 days of treatment in primary CD4 T cells.

[3] = tested on: primary human CD4 T-lymphocytes; assay: Cell hyperproliferation in primary T cells (CFSE staining, mitotic index); conditions: for mitotic index %: % of not treated control (100%), day 10, HU 100 μM; for mitotic index % / anti-proliferative activity (in words): SPPs 10 μM, Imatinib 10 μM; for anti-proliferative activity (in words): compared with HU 100 μM, HU+ddI or untreated control; for Anti-proliferative capacity: class symbol, Table 6
Procedure: We built up an experimental model using primary T cells to study the activity of the compounds on induced hyperproliferation of cells, which is a characteristic of both chronic viral diseases and cancer including HIV and leukemia.
as §1

HIV-1 NL 4.3 [4] = assay: HIV-1 replication in quiescent CD4 T cells (p24 Ag ELISA); conditions: for anti-HIV activity in quiescent cells (in words) / HIV quiescent cells (percentage p24 compared to the untreated control): SPPs 10 μM; for anti-HIV activity in quiescent cells (in words): compared with HU 100 μM, HU+ddI or untreated control; for Antiviral activity in quiescent cells: class symbol, Table 6; for HIV quiescent cells (percentage p24 compared to the untreated control): quiescent CD4 T cells, day 10, HU 100 μM, HU 100 μM+ddI 2 μM
Procedure: Unstimulated (quiescent/resting, day 0 to 5) human CD4 T-lymphocytes, obtained by magnetic bead separation from healthy, normal donors, were infected with HIV-1 NL 4.3. After five days in culture, cells were stimulated with PHA (5 μg/ml) to induce proliferation, and then, at day 7, IL-2 (20 U/ml) was added (stimulated, day 6 to 10). All available compounds were tested at a concentration of 10 μM. HU 100 μM and HU 100 μM+ddI 2 μM were also employed as comparators and the negative control was left untreated. At day 10, cells and supernatants were harvested and HIV-1 p24 Ag was measured by ELISA. HIV replication was expressed as percentage p24 compared to the untreated control.

SMILES	HIV activated cells (% p24 compared to not treated control) (HIV-1 NL 4.3 [1]) [%]	Antiviral activity in activated cells (HIV-1 NL 4.3 [1])	apoptotic effect (in words) [2]	apoptosis % [2] [%]	mitotic index % [3] [%]	anti-proliferative activity (in words) [3]	Anti-proliferative capacity [3]	anti-HIV activity in quiescent cells (in words) (HIV-1 NL 4.3 [4])	Antiviral activity in quiescent cells (HIV-1 NL 4.3 [4])	HIV quiescent cells (percentage p24 compared to the untreated control) (HIV-1 NL 4.3 [4]) [%]	anti-HIV activity in activated T cells (in words) (HIV-1 NL 4.3 [1])
CCSc1nc(NCCc2ccccc2)c2cnn(CC(Cl)c3ccccc3)c2n1 (stereo not shown) [VS1-026]	19.6 ± 12.6	+++ (excellent (+++, greater than 70% activity))	not proapoptotic	135.3 ± 15.7	24.9 ± 16.6	equal to or a little less anti-proliferative than HU	+++ (excellent (+++, greater than 70% activity))	slightly less potent against HIV	++ (good (++, 50 to 70% activity))	29.3 ± 6.9	
CCCCNc1ncnc2c1cnn2C=Cc1ccccc1 [VS1-021]	97.2 ± 30.3			108.0 ± 21.7	86.2 ± 13.7	poor activity				115.4 ± 40.4	poor activity
CSc1nc(NCCc2cccc(Cl)c2)c2cnn(CC(Cl)c3ccccc3)c2n1 (stereo not shown) [VS1-028]	25.7 ± 19.8	+++ (excellent (+++, greater than 70% activity))	no more apoptotic than HU	108.6 ± 30.8	15.2 ± 15.7	good anti-proliferative capacity (superior to 100 μM HU)	+++ (excellent (+++, greater than 70% activity))	good anti-HIV activity	+++ (excellent (+++, greater than 70% activity))	4.4 ± 2.9	good anti-HIV activity
CSc1nc(NCc2ccc(F)cc2)c2cnn(CC(Cl)c3ccccc3)c2n1 (stereo not shown) [VS1-017]	63.4 ± 31.2			130.0 ± 19.3	34.5 ± 6.7	poor activity				38.7 ± 44.5	poor activity
CSc1nc(N2CCOCC2)c2cnn(CC(Cl)c3ccccc3)c2n1 (stereo not shown) [VS1-030]	34.5 ± 13.4		proapoptotic	174.4 ± 16.4	15.5 ± 4.8	greater than 100 μM HU and 10 μM Imatinib				17.4 ± 10.8	
CSc1nc(NCc2ccccc2Cl)c2cnn(CC(Cl)c3ccccc3)c2n1 (stereo not shown) [VS1-036]	22.1 ± 5.7	+++ (excellent (+++, greater than 70% activity))	did not induce apoptosis	139.3 ± 41.6	12.0 ± 6.4	greater or equal to that of 100 μM HU	+++ (excellent (+++, greater than 70% activity))	effective against HIV	+++ (excellent (+++, greater than 70% activity))	14.5 ± 4.0	effective against HIV
CSc1nc(Nc2cccc(Cl)c2)c2cnn(C=Cc3ccccc3)c2n1 [VS1-016]	21.0 ± 6.3			88.0 ± 12.7	71.2 ± 5.8					23.6 ± 22.1	better anti-HIV activity than HU
